Among the data in PubChem BioAssay AID1963953 are normalized CFU (DMSO = 1) values, retold here.

The source made the active and inactive calls.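 How the source made its calls: active means compounds cutting recovered intracellular Salmonella colonies below 0.7 of the DMSO level; inactive means the rest.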

For the assay, the system named is HeLa infected S. Typhimurium SL1344, CFU, 6 h. In words: intracellular Salmonella Typhimurium clearance, cell-based, colony forming units, HeLa, SL1344 (AID 1963953). The settings on record: at 20 µM; hits give low values.
On to `CC(=O)N1[C@@H]2CC[C@H]1CC(Nc1nc(NCCc3sc(N)nc3C)nc(N3CCn4ncnc4C3)n1)C2` (stereo not given in full), for which the normalized CFU (DMSO = 1) was 0.97 (inactive).

Take `CCC(C)(C)C(=O)C(=O)N1CCCC[C@H]1C(=O)N[C@H](CCc1ccc(OC)cc1)C(=O)N1[C@@H]2CC[C@H]1CC(NC(C)=O)C2` (stereo not given in full): the normalized CFU (DMSO = 1) is 0.77 (inactive).

In the case of `CCC(C)(C)C(=O)C(=O)N1CCCC[C@H]1C(=O)N[C@H](CCc1ccc(OC)cc1)C(=O)N1[C@@H]2CC[C@H]1CC(Nc1nc(NCCc3sc(N)nc3C)nc(N3CCn4ncnc4C3)n1)C2` (stereo not given in full), the normalized CFU (DMSO = 1) is 0.31.

In the case of `CS(C)=O`, the normalized CFU (DMSO = 1) was 1 (inactive).

As for `CCC(C)(C)C(=O)C(=O)N1CCCC[C@H]1C(=O)N[C@H](CCc1ccc(OC)cc1)C(=O)N1[C@@H]2CC[C@H]1CC(Nc1nc(NCCc3ccccc3)nc(N3CCn4ncnc4C3)n1)C2` (stereo not given in full), the normalized CFU (DMSO = 1) is 0.47.
